Assay type in all cases: in vivo
In assay [1] the test system is larvae of the banded cucumber beetle (Diabrotica balteata). The experiment in a line: Diabrotica balteata spray test. To be noted: 168 h, 100 g/ha (=32 μg/well), wheat seeds, after 7 days, read-out: efficacy (seedling growth). The gist of the method:
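Efficacy in % was read 7 days after infesting with 10-20 larvae per unit. Before infestation, 1-day-germinated wheat seedlings (5 per well) were sprayed with the active ingredient, formulated in acetone and dimethylformamide plus emulsifier and diluted with water containing emulsifier.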

Assay [2] has as its system fall armyworm larvae (Spodoptera frugiperda). The experiment in a line: Spodoptera frugiperda spray test (maize leaf sections). The note with it: 168 h. The gist of the method:
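Percent kill of Spodoptera frugiperda caterpillars read at day 7. Larvae placed on dried Zea mays leaf pieces previously sprayed with test preparation, made from acetone plus DMF and diluted with emulsifier-containing water (1000 ppm).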

For assay [3], the system named is adult engorged female ticks (Rhipicephalus microplus). The assay can be described thus: Rhipicephalus (Boophilus) microplus injection test. The note with it: 168 h, 4 μg/animal, egg deposition after 7 days, read-out: efficacy (infertile eggs). The method, then:
Rhipicephalus (Boophilus) Microplus—Injection Test
(§1) Solvent: dimethyl sulfoxide
To produce a suitable preparation of active compound, 10 mg of active compound are dissolved in 0.5 mL solvent, and the concentrate is diluted with solvent to the desired concentration.
Five adult engorged female ticks (Rhipicephalus microplus) are injected with 1 μL compound solution into the abdomen. The ticks are transferred into replica plates and incubated in a climate chamber.
After 7 days egg deposition of fertile eggs is monitored. Eggs where fertility is not visible are stored in a climate chamber till hatching after about 42 days. An efficacy of 100% means all eggs are infertile; 0% means all eggs are fertile.

Assay [4] deals with Rhipicephalus microplus larvae (strain Parkhurst, resistant against synthetic pyrethroids). The experiment in a line: Rhipicephalus (Boophilus) microplus in-vitro contact test, larval cattle tick. To be noted: 5 μg/cm^2 (=500 g/ha), after 48 hours, read-out: efficacy (larvae dead or moribund). The method, then:
Rhipicephalus (Boophilus) Microplus—In-Vitro Contact Tests Larval Cattle Tick (Strain Parkhurst, Resistant Against Synthetic Pyrethroids)
(§2) 9 mg compound is solved in 1 mL acetone and diluted with acetone to the desired concentration. 250 μL of the test solution is filled in 25 mL glass test tubes and homogeneously distributed on the inner walls by rotation and tilting on a shaking device (2 h at 30 rpm). With a compound concentration of 900 ppm, an inner surface of 44.7 cm^2 and a homogeneous distribution, a dose of 5 μg/cm^2 is achieved.
After the solvent has evaporated, each test tube is filled with 20-50 cattle tick larvae (Rhipicephalus microplus), closed with a perforated lid and incubated in a horizontal position at 85% relative humidity and 27° C. in an incubator. After 48 hours efficacy is determined. The larvae are patted on the ground of the tubes and negative geotactic behavior is recorded.
An efficacy of 100% means all larvae are dead or moribund; 0% means no larvae are dead or moribund.

Assay [5] has as its system adult unfed cat fleas (Ctenocephalides felis). The assay can be described thus: Ctenocephalides felis oral test. To be noted: 48 h. The method, then: Ctenocephalides felis—Oral Test
as §1
To produce a suitable preparation of active compound, 10 mg of active compound are dissolved in 0.5 mL solvent, and the concentrate is diluted with cattle blood to the desired concentration.
Approximately 20 adult unfed cat fleas (Ctenocephalides felis) are placed in flea chambers. The blood chamber, sealed with parafilm on the bottom, are filled with cattle blood supplied with compound solution and placed on the gauze covered top of the flea chamber, so that the fleas are able to suck the blood. The blood chamber is heated to 37° C. whereas the flea chamber is kept at room temperature.
After 2 days mortality in % is determined. 100% means all the fleas have been killed; 0% means none of the fleas have been killed.

For assay [6], the system named is adult cat fleas (Ctenocephalides felis). The assay can be described thus: Ctenocephalides felis in-vitro contact test, adult cat flea. To be noted: 5 μg/cm^2 (=500 g/ha), after 48 hours. The method, then: Ctenocephalides felis—In-Vitro Contact Tests Adult Cat Flea
as §2
After the solvent has evaporated, each test tube is filled with 5-10 adult cat fleas (Ctenocephalides felis), closed with a perforated lid and incubated in a lying position at room temperature and relative humidity. After 48 hours efficacy is determined. The fleas are patted on the ground of the tubes and are incubated on a heating plate at 45-50° C. for at most 5 minutes. Immotile or uncoordinated moving fleas, which are not able to escape the heat by climbing upwards, are marked as dead or moribund.
An efficacy of 100% means all fleas are dead or moribund; 0% means no fleas are dead or moribund.

The test system of assay [7] is green peach aphid (Myzus persicae). The experiment in a line: Myzus persicae oral test. The note with it: 120 h. The method, then: Myzus persicae—oral test • Solvent: 100 parts by weight acetone
To produce a suitable preparation of active compound, 1 part by weight of active compound is mixed with the stated amount of solvent, and the concentrate is diluted with water to the desired concentration. 50 μL compound solution is filled in microtiter plates and 150 μL IPL41 insect medium (33%+15% sugar) is added to obtain a total volume of 200 μL per well. Afterwards the plates are sealed with parafilm through which a mixed population of the green peach aphid (Myzus persicae) can suck on the compound preparation.
(§3) After 5 days mortality in % is determined. 100% means all aphids have been killed and 0% means none of the aphids have been killed.

Assay [8] has the same test system. The experiment in a line: Myzus persicae spray test. The note with it: foliar, 120 h, Chinese cabbage leaf disks, after 5 days. The method, then:
Myzus persicae—Spray Test • Solvent: 78.0 parts by weight acetone • 1.5 parts by weight dimethylformamide • Emulsifier: alkylarylpolyglycol ether
To produce a suitable preparation of active compound, 1 part by weight of active compound is mixed with the stated amount of solvents and is diluted with water, containing an emulsifier concentration of 1000 ppm, to the desired concentration. Further test concentrations are prepared by dilution with emulsifier containing water.
Chinese cabbage (Brassica pekinensis) leaf disks infected with all instars of the green peach aphid (Myzus persicae), are sprayed with a preparation of the active ingredient of the desired concentration.
as §3

The subject of assay [9] is larvae of the southern green stink bug (Nezara viridula). The experiment in a line: Nezara viridula spray test. To be noted: in Hordeum vulgare, 96 h. How it is done:
Nezara viridula—Spray Test • Solvent: 78.0 parts by weight of acetone • 1.5 parts by weight of dimethylformamide • Emulsifier: alkylarylpolyglycol ether
To produce a suitable preparation of active compound, 1 part by weight of active compound is mixed with the stated amount of solvent, and the concentrate is diluted with water, containing an emulsifier concentration of 1000 ppm, to the desired concentration. Further test concentrations are prepared by dilution with emulsifier containing water.
Barley plants (Hordeum vulgare) are sprayed with a test solution containing the desired concentration of the active ingredient and are infested with larvae of the southern green stink bug (Nezara viridula).
After 4 days mortality in % is determined. 100% means all the stink bugs have been killed; 0% means none of the stink bugs have been killed.

As to `Cc1nc([C@H](C)NC(=O)c2cc(C#N)cc(C(F)(F)F)c2)n(-c2ncc(C#N)s2)n1` [I-16], in assay [1], the pest or weed control at 32 µg/disc, 100 g/ha was 100%. The mortality at 100 g/ha in [2] is 100%. Besides, the pest or weed control at 0.004 mg in assay [3] worked out at 100%. In addition, the pest or weed control at 5 µg/cm2 in [4] was found to be 100%. In [5], this molecule registered a mortality at 100 ppm of 100%.

Turning to `CC(NC(=O)c1cc(Cl)cc(OC(F)(F)F)c1)c1ncnn1-c1ncc(C#N)s1` (stereo not shown) [I-28], in assay [1], the pest or weed control at 32 µg/disc, 100 g/ha came to 100%. For the same molecule, the mortality at 100 g/ha in assay [2] was 100%. The pest or weed control at 5 µg/cm2 in assay [4] is 100%. Moreover, the “efficacy (fleas dead or moribund)” value in assay [6] came out at 100%.

As to `CC(NC(=O)c1cc(Cl)cc(S(F)(F)(F)(F)F)c1)c1ncnn1-c1ncc(C#N)s1` (stereo not shown) [I-32], the pest or weed control at 32 µg/disc, 100 g/ha in assay [1] came out at 100%. The mortality at 100 g/ha in assay [2] stood at 100%. For the same molecule, in [3], the pest or weed control at 0.004 mg turned out to be 100%. Also, in assay [4], the pest or weed control at 5 µg/cm2 is 90%. The mortality at 100 ppm in [5] stood at 100%.

On to `CC(NC(=O)c1cc(OC(F)F)cc(C(F)F)c1)c1ncnn1-c1ncc(C#N)s1` (stereo not shown) [I-34], for which the pest or weed control at 32 µg/disc, 100 g/ha in assay [1] is 100%. For the same molecule, in assay [2], the mortality at 100 g/ha worked out at 100%. Also, the pest or weed control at 0.004 mg in assay [3] stood at 100%. In addition, the mortality at 4 ppm in assay [7] was determined as 100%. For the same molecule, the pest or weed control at 5 µg/cm2 in assay [4] is 90%. Also, the mortality at 100 ppm in assay [5] came out at 100%.

Turning to `CC(NC(=O)c1cc(OC(F)F)cc(C2CC2)c1)c1ncnn1-c1ncc(C#N)s1` (stereo not shown) [I-35], the pest or weed control at 32 µg/disc, 100 g/ha in assay [1] stood at 100%. Also, the mortality at 100 g/ha in [2] stood at 100%; in assay [8] it was 90%. The pest or weed control at 0.004 mg in assay [3] came out at 100%. In assay [7], this molecule returned a mortality at 4 ppm of 100%. In addition, the pest or weed control at 5 µg/cm2 in assay [4] was determined as 100%. Moreover, the mortality at 100 ppm in assay [5] came out at 100%.

Regarding `Cc1nc([C@H](C)NC(=O)c2cc(Br)cc(C#N)c2)n(-c2ncc(C(=O)N(C)C)s2)n1` [I-70], the pest or weed control at 5 µg/cm2 in [4] worked out at 70%. Besides, in [6], the “efficacy (fleas dead or moribund)” value is 100%.

Regarding `Cc1nc([C@H](C)NC(=O)c2cc(Br)cc(Br)c2)n(-c2ncc(C(=O)N(C)C)s2)n1` [I-71], the pest or weed control at 32 µg/disc, 100 g/ha in assay [1] was 100%. Also, the pest or weed control at 5 µg/cm2 in [4] worked out at 100%. Moreover, the “efficacy (fleas dead or moribund)” value in [6] is 100%.

Regarding `Cc1nc([C@H](C)NC(=O)c2cc(Br)cc(C#N)c2)n(-c2ncc(C(=O)N(C)CC#N)s2)n1` [I-75], in [1], the pest or weed control at 32 µg/disc, 100 g/ha was found to be 100%. In addition, the mortality at 4 ppm in assay [7] was 100%. Further, the pest or weed control at 5 µg/cm2 in assay [4] was found to be 90%. In [6], the “efficacy (fleas dead or moribund)” value is listed as 90%.

As for `Cc1nc([C@H](C)NC(=O)c2cc(Cl)cc(I)c2)n(-c2ncc(C(=O)N(C)C)s2)n1` [I-76], the mortality at 100 g/ha in assay [2] worked out at 100%. For the same molecule, the pest or weed control at 5 µg/cm2 in [4] was 100%. Moreover, the “efficacy (fleas dead or moribund)” value in [6] is listed as 80%.

Take `Cc1nc([C@H](C)NC(=O)c2cc(C(F)(F)F)cc(S(C)(=O)=O)c2)n(-c2ncc(C(=O)N(C)CC#N)s2)n1` [I-84]: the pest or weed control at 32 µg/disc, 100 g/ha in assay [1] is 100%. For the same molecule, the pest or weed control at 0.004 mg in [3] was 100%. The molecule further registered a mortality at 4 ppm in assay [7] of 100%. Also, the pest or weed control at 5 µg/cm2 in assay [4] stood at 80%. In assay [9], this molecule displayed a mortality at 100 g/ha of 100%. Also, in [5], the mortality at 100 ppm was 100%.

As to `Cc1nc([C@H](C)NC(=O)c2cc(Br)cc(OC(F)(F)F)c2)n(-c2ncc(C(=O)N(C)CC3CC3)s2)n1` [I-124], in assay [1], the pest or weed control at 32 µg/disc, 100 g/ha stood at 100%. Further, the mortality at 100 g/ha in [2] and in assay [9] was 100% in each case. Moreover, in assay [4], the pest or weed control at 5 µg/cm2 stood at 100%. Besides, the mortality at 500 g/ha in assay [9] is 100%. The “efficacy (fleas dead or moribund)” value in [6] is 100%.

Regarding `Cc1nc([C@H](C)NC(=O)c2cc(Br)cc(OC(F)(F)F)c2)n(-c2ncc(C(=O)N(C)C(C)C)s2)n1` [I-126], the pest or weed control at 32 µg/disc, 100 g/ha in [1] was determined as 100%. Besides, in [2], the mortality at 100 g/ha was determined as 100%. Besides, in assay [4], the pest or weed control at 5 µg/cm2 turned out to be 100%. Besides, the “efficacy (fleas dead or moribund)” value in assay [6] is 80%.

The record behind these values is patent publication US20230065953A1, “NOVEL HETEROARYL-TRIAZOLE COMPOUNDS AS PESTICIDES” (Bayer Aktiengesellschaft, priority 2019, published 2023).
